Data on 1 compound can be found in ChEMBL document CHEMBL3872236, “Discovery of 2-((2-chloro-6-fluorophenyl)amino)-N-(3-fluoro-5-(trifluoromethyl)phenyl)-1-methyl-7,8-dihydro-1H-[1,4]dioxino[2',3':3,4]benzo[1,2-d]imidazole-5-carboxamide as potent, selective and efficacious microsomal prostaglandin E2 synthase-1 (mPGES-1) inhibitor” (Bioorg Med Chem Lett, 2016).

The nature of data set [1]: in vitro. The conditions noted are these: rat, liver microsomes. Background: Liver microsomes are a subcellular fraction often used to study metabolism.
A short description of data set [2]: in vitro. As to conditions: guinea pig, liver microsomes.
A short description of data set [3]: in vitro. As to conditions: human, liver microsomes.

In general, fraction remaining refers to what is left of the initial amount, in per cent. A lower fraction remaining goes with more turnover. As for `O=C(Nc1cc(F)cc(C(F)(F)F)c1)c1cc2nc(Nc3c(F)cccc3Cl)[nH]c2c2c1OCCO2`, the share remaining at 1 h, 1 µM in data set [1] was 93.8%; in data set [2], 95.8%; in data set [3] it was 98.2%.
